Several values for one entry are separate records, joined by “and”; a condition that tells them apart may be missing. Equal values may be shown once. Read-outs that look alike come from different tables or passages of the source. Blank lines part the entries; values can stand above or below the compound they belong to.
Assays:
[1] = system: cerebral blood flow in mice; experiment: laser speckle test blood flow model, improvement of cerebral blood flow in mice; type: in vivo; settings: injected intraperitoneally, within 60 minutes after administration vs before; for change in vivo at 20 mg/kg: dose of 20 mg/kg
Source text: We used a laser speckle test blood flow model to test the activity of compounds in improving cerebral blood flow in mice. The principle is to measure the intensity changes of flowing blood through laser speckle technology, reflecting real-time cerebral blood flow; By comparing the changes in blood flow before and after administration in mice, the effect of compounds on improving blood flow can be detected.
The experimental mice were anesthetized for 30 seconds and fixed on a rack. After waiting for 2 minutes for the baseline light intensity data to stabilize, the brain blood flow light intensity data of the mice were recorded for 10 minutes without administration. Subsequently, the test compound was injected intraperitoneally and the cerebral blood flow and light intensity data of mice were recorded within 60 minutes after administration. Comparing the changes in light intensity before and after administration can reveal the degree of changes in cerebral blood flow in mice.
Through the laser speckle model mentioned above, we conducted preliminary tests on the activity of the compound in improving cerebral blood flow in mice. In this experiment, ferulic acid (FA) was used as a positive control. Multiple compounds have shown significant improvement effects on cerebral blood flow in this model. At a dose of 5 mg/kg, compound 9 can increase cerebral blood flow in mice by about 10%, and compound 16 can increase it by about 20%. At a dose of 20 mg/kg, compounds 30 and 59 increased mouse cerebral blood flow by about 10%, compounds 5, 6, 26, 28, 29, 35, 43, and 58 all increased mouse cerebral blood flow by about 20%, compounds 16, 57, and 86 increased mouse cerebral blood flow by about 30%, compounds 27, 84, and 104 increased it by about 40%, and compound 83 increased mouse cerebral blood flow by 50% to 60%. Overall, the patented compound has good development prospects.

[2] = pharmacokinetic parameters in mice (plasma, LC-MS/MS); type: in vivo, Male ICR (CD-1) mice; settings: male, ICR (CD-1), mouse; for MRT inf: read-out: MRT0-∞; for bioavailability: read-out: F (oral bioavailability)
Description: Male ICR (CD-1) mice were divided into two groups, with three mice in each group. […] intravenously injected with 5 mg/kg of the test substance, blood was collected before administration, and 0.25 h, 0.5 h, 1 h, 2 h, 4 h, 8 h, and 24 hours after administration, respectively, and centrifuged immediately to obtain plasma, and the drug concentration in the plasma was determined using liquid chromatography tandem mass spectrometry.

[3] = drug concentration in brain tissue, plasma and CSF after oral administration in mice; type: in vivo
Source text: Compound 27 has good brain tissue drug distribution after oral administration in mice, with a B/P of approximately 0.7.

[4] = Mus musculus, ip, 1 h, read-out: increase of cerebral blood flow in mice
[5] = PO 20 mg/kg, 15 min, individual animals 13-15
[6] = PO 20 mg/kg, 30 min, individual animals 16-18

Compound: COc1cccc(/C=C/C(=O)N2CCOC2=O)c1 [Example 5, (E)-3-(3-(3-methoxyphenyl)acryloyl)oxazolidin-2-one]
- change in vivo at 20 mg/kg [1, 4]: ~20%

Compound: COc1ccc(/C=C/C(=O)N2CCOC2=O)cc1 [Example 6, (E)-3-(3-(4-methoxyphenyl)acryloyl)oxazolidin-2-one]
- change in vivo at 20 mg/kg [1, 4]: ~20%

Compound: O=C(/C=C/c1ccc(C(F)(F)F)cc1)N1CCOC1=O [Example 9]
- increase of cerebral blood flow in mice ([1]; dose of 5 mg/kg): about 10%

Compound: O=C(/C=C/c1cccc(Oc2ccccc2)c1)N1CCOC1=O [Example 16, (E)-3-(3-(3-phenoxyphenyl)acryloyl)oxazolidin-2-one]
- change in vivo at 5 mg/kg ([1]; Mus musculus, ip, 1 h, dose of 5 mg/kg, read-out: increase of cerebral blood flow in mice): ~20%
- change in vivo at 20 mg/kg [1, 4]: ~30%

Compound: O=C(/C=C/c1ccccc1C(F)(F)F)N1C(=O)OCC1c1ccccc1 (stereo not drawn) [Example 26, (E)-3-(3-(2-trifluoromethylphenyl)acryloyl)-4-phenyloxazolidin-2-one]
- change in vivo at 20 mg/kg [1, 4]: ~20%

- AUC(0-inf) ([2]; iv-5 mg/kg): 805 ng·h/mL
- AUC(0-t) ([2]; iv-5 mg/kg): 790 ng·h/mL
- clearance ([2]; iv-5 mg/kg): 104 mL/min/kg
- half-life ([2]; iv-5 mg/kg): 2.08 h
- MRT inf ([2]; iv-5 mg/kg): 1.04 h
- AUC(0-inf) ([2]; po-20 mg/kg): 650 ng·h/mL
- AUC(0-t) ([2]; po-20 mg/kg): 465 ng·h/mL
- Cmax ([2]; po-20 mg/kg): 104 ng/mL
- Tmax ([2]; po-20 mg/kg): 1 h
- half-life ([2]; po-20 mg/kg): 4.01 h
- bioavailability ([2]; po-20 mg/kg vs iv-5 mg/kg): 14.7%
- MRT inf ([2]; po-20 mg/kg): 6.12 h
- concentration at 15 min ([3]; ICR (CD-1), mouse, brain, po, 20 mg/kg, PO 20 mg/kg, 15 min, mean, read-out: Brain): 50.9 ng/g
- concentration at 30 min ([3]; ICR (CD-1), mouse, brain, po, 20 mg/kg, PO 20 mg/kg, 30 min, mean, read-out: Brain): 43.7 ng/g
- Kp at 15 min ([3]; ICR (CD-1), mouse, brain/heart plasma, po, 20 mg/kg, PO 20 mg/kg, 15 min, individual animals 13-15, read-out: Brain/H. Plasma): 0.7
- Kp at 15 min ([3]; ICR (CD-1), mouse, brain/heart plasma, po, 20 mg/kg, PO 20 mg/kg, 15 min, mean, read-out: Brain/H. Plasma): 0.7
- Kp at 30 min ([3]; ICR (CD-1), mouse, brain/heart plasma, po, 20 mg/kg, PO 20 mg/kg, 30 min, mean, read-out: Brain/H. Plasma): 0.7
- Kp at 15 min ([3]; ICR (CD-1), mouse, brain/plasma, po, 20 mg/kg, after oral administration in mice, read-out: B/P (brain tissue drug distribution)): ~0.7
- concentration at 15 min ([3]; ICR (CD-1), mouse, heart plasma, po, 20 mg/kg, PO 20 mg/kg, 15 min, mean, read-out: Heart Plasma): 70.4 ng/mL
- concentration at 30 min ([3]; ICR (CD-1), mouse, heart plasma, po, 20 mg/kg, PO 20 mg/kg, 30 min, mean, read-out: Heart Plasma): 61.9 ng/mL
- concentration at 15 min ([3]; ICR (CD-1), mouse, po, 20 mg/kg, PO 20 mg/kg, 15 min, mean, read-out: CSF): 3.8 ng/mL
- concentration at 30 min ([3]; ICR (CD-1), mouse, po, 20 mg/kg, PO 20 mg/kg, 30 min, mean, read-out: CSF): 3.2 ng/mL
- concentration at 15 min ([3]; ICR (CD-1), mouse, portal vein plasma, po, 20 mg/kg, PO 20 mg/kg, 15 min, individual animals 13-15, read-out: Portal Vein Plasma): 320 ng/mL
- concentration at 15 min ([3]; ICR (CD-1), mouse, portal vein plasma, po, 20 mg/kg, PO 20 mg/kg, 15 min, mean, read-out: Portal Vein Plasma): 371 ng/mL
- concentration at 30 min ([3]; ICR (CD-1), mouse, portal vein plasma, po, 20 mg/kg, PO 20 mg/kg, 30 min, mean, read-out: Portal Vein Plasma): 373 ng/mL
- Brain [3, 5]: 29.4 ng/g and 75.4 ng/g and 47.9 ng/g
- Brain/H. Plasma [3, 5]: 0.65 and 0.91
- CSF [3, 5]: 1.63 ng/mL and 8.37 ng/mL and 1.40 ng/mL
- Heart Plasma [3, 5]: 41.9 ng/mL and 117 ng/mL and 52.7 ng/mL
- Portal Vein Plasma [3, 5]: 375 ng/mL and 418 ng/mL
- Brain [3, 6]: 19.4 ng/g and 38.8 ng/g and 44.3 ng/g
- Brain/H. Plasma [3, 6]: 0.56 and 1.37 and 0.49
- Heart Plasma [3, 6]: 34.2 ng/mL and 28.2 ng/mL and 89.5 ng/mL
- Portal Vein Plasma [3, 6]: 252 ng/mL and 171 ng/mL and 704 ng/mL
Compound: O=C(/C=C/c1ccccc1C(F)(F)F)N1C(=O)OC[C@@H]1c1ccccc1 [Example 27, (S, E)-3-(3-(2-trifluoromethylphenyl)acryloyl)-4-phenyloxazolidin-2-one]
- CSF [3, 6]: 0.670 ng/mL and 0.770 ng/mL and 5.94 ng/mL
- change in vivo at 20 mg/kg [1, 4]: ~40%

Compound: O=C(/C=C/c1ccccc1C(F)(F)F)N1C(=O)OC[C@H]1c1ccccc1 [Example 28, (R, E)-3-(3-(2-trifluoromethylphenyl)acryloyl)-4-phenyloxazolidin-2-one]
- change in vivo at 20 mg/kg [1, 4]: ~20%

Compound: O=C(/C=C/c1cccc(OC(F)(F)F)c1)N1C(=O)OC[C@@H]1c1ccccc1 [Example 29, (S, E)-4-phenyl-3-(3-(3-(trifluoromethoxy)phenyl)acryloyl) oxazolidin-2-one]
- change in vivo at 20 mg/kg [1, 4]: ~20%

Compound: O=C(/C=C/c1ccccc1OC(F)(F)F)N1C(=O)OC[C@@H]1c1ccccc1 [Example 30, (S, E)-4-phenyl-3-(3-(2-(trifluoromethoxy)phenyl)acryloyl) oxazolidin-2-one]
- change in vivo at 20 mg/kg [1, 4]: ~10%

Compound: O=C(/C=C/c1cccc(-c2ccccc2)c1)N1C(=O)OC[C@@H]1c1ccccc1 [Example 35, (S, E)-3-(3-([1,1′-biphenyl]-3-yl)acryloyl)-4-phenyloxazolidin-2-one]
- change in vivo at 20 mg/kg [1, 4]: ~20%

Compound: O=C(/C=C/c1ccc(F)cc1C(F)(F)F)N1C(=O)OC[C@@H]1c1ccccc1 [Example 43, (S, E)-3-(3-(4-fluoro-2-(trifluoromethyl)phenyl)acryloyl)-4-phenyloxazolidin-2-one]
- change in vivo at 20 mg/kg [1, 4]: ~20%

Compound: O=C(/C=C/c1ccccc1C(F)(F)F)N1C(=O)OCC1Cc1ccccc1 (stereo not drawn) [Example 57, (E)-4-benzyl-3-(3-(2-trifluoromethylphenyl)acryloyl)oxazolidin-2-one]
- change in vivo at 20 mg/kg [1, 4]: ~30%

Compound: O=C(/C=C/c1ccccc1C(F)(F)F)N1C(=O)OC[C@@H]1Cc1ccccc1 [Example 58, (S, E)-4-benzyl-3-(3-(2-trifluoromethylphenyl)acryloyl)oxazolidin-2-one]
- change in vivo at 20 mg/kg [1, 4]: ~20%

Compound: O=C(/C=C/c1ccccc1C(F)(F)F)N1C(=O)OC[C@H]1Cc1ccccc1 [Example 59, (R, E)-4-benzyl-3-(3-(2-trifluoromethylphenyl)acryloyl)oxazolidin-2-one]
- change in vivo at 20 mg/kg [1, 4]: ~10%

- AUC(0-inf) ([2]; iv-5 mg/kg): 2200 ng·h/mL
- AUC(0-t) ([2]; iv-5 mg/kg): 2170 ng·h/mL
- clearance ([2]; iv-5 mg/kg): 37.8 mL/min/kg
- half-life ([2]; iv-5 mg/kg): 1.56 h
- MRT inf ([2]; iv-5 mg/kg): 1.21 h
- AUC(0-inf) ([2]; po-10 mg/kg): 767 ng·h/mL
- AUC(0-t) ([2]; po-10 mg/kg): 757 ng·h/mL
- Cmax ([2]; po-10 mg/kg): 116 ng/mL
- Tmax ([2]; po-10 mg/kg): 1 h
- half-life ([2]; po-10 mg/kg): 4.08 h
- bioavailability ([2]; po-10 mg/kg vs iv-5 mg/kg): 17.4%
- MRT inf ([2]; po-10 mg/kg): 5.61 h
Compound: [2H]C1([2H])OC(=O)N(C(=O)/C=C/c2ccccc2C(F)(F)F)[C@H]1c1ccccc1 [Example 83, (S, E)-4-phenyl-3-(3-(2-trifluoromethylphenyl)acryloyl)oxazolidin-2-one-5,5-d2]
- change in vivo at 20 mg/kg [1, 4]: 50 to 60%

Compound: [2H]C1([2H])OC(=O)N(C(=O)/C=C/c2ccccc2OC(F)(F)F)[C@H]1c1ccccc1 [Example 84, (S, E)-4-phenyl-3-(3-(2-trifluoromethoxyphenyl)acryloyl) oxazolidin-2-one-5,5-d2]
- change in vivo at 20 mg/kg [1, 4]: ~40%

Compound: [2H]C1([2H])OC(=O)N(C(=O)/C=C/c2cccc(-c3ccccc3)c2)[C@H]1c1ccccc1 [Example 86, (S, E)-3-(3-([1,1′-biphenyl]-3-yl)acryloyl)-4-phenyloxazolidin-2-one-5,5-d2]
- change in vivo at 20 mg/kg [1, 4]: ~30%

Compound: [2H]C1([2H])OC(=O)N(C(=O)/C=C/c2ccccc2C(F)(F)F)C1Cc1ccccc1 (stereo not drawn) [Example 104, (E)-4-benzyl-3-(3-(2-trifluoromethylphenyl)acryloyl)oxazolidin-2-one-5,5-d2]
- change in vivo at 20 mg/kg [1, 4]: ~40%

From patent US20250313539A1, “Alpha, Beta-UNSATURATED AMIDE COMPOUND, AND PREPARATION METHOD THEREFOR, AND PHARMACEUTICAL COMPOSITION AND USE THEREOF” (SHANGHAI INSTITUTE OF MATERIA MEDICA, CHINESE ACADEMY OF …, priority 2022, published 2025)
